This passage reports Ki and IC50 results from patent US20230129359A1, “MUSCARINIC RECEPTOR 4 ANTAGONISTS AND METHODS OF USE” (Neurocrine Biosciences, Inc., priority 2020, published 2023).

As a reminder, the IC50 is the midpoint of a concentration-inhibition curve.

SMILES strings stand for the structures.

One assay has as its target T1, human M4 receptor (Homo sapiens, UniProt P08173).
T1 construct: expressed in transfected cells; host or cells: CHO cells
T1 sequence (P08173 1-479): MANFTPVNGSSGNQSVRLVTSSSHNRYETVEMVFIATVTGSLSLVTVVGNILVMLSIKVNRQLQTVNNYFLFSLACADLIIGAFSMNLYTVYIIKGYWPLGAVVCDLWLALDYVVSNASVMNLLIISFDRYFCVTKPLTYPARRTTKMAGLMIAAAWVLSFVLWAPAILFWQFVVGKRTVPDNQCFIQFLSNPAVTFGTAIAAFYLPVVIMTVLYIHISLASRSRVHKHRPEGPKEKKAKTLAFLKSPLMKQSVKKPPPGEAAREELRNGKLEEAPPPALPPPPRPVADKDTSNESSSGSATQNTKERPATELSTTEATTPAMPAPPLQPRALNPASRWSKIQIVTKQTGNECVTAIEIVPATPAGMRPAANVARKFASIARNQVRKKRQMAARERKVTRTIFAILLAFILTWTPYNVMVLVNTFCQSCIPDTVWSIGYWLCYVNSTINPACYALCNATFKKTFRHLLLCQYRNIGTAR
Put plainly: Radioligand ([3H]N-methylscopolamine) binding assay, membranes from CHO cells expressing human M4 receptor. Conditions: Ki against human M4 receptor; membranes from CHO cells; tritiated N-methylscopolamine 1.5 nM; read-out: K. A digest of the protocol: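 Competition binding used CHO-cell membranes expressing human M4 with 1.5 nM [3H]N-methylscopolamine and twelve compound concentrations ([…]). Incubation was 90 minutes at 37 °C in 50 mM HEPES, 100 mM NaCl, 5 mM MgCl2, 1 mM EDTA, pH 7.4. Bound ligand was collected by filtration onto PEI-treated glass fibre for Ki.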

Assay [1] concerns the target T2, Human muscarinic 4 receptor (CHRM4) (Homo sapiens, UniProt P08173).
T2 construct: host or cells: CHO-K1
T2 sequence (P08173 1-479): T1 sequence (P08173 1-479)
Put plainly: Fluorescence-based functional calcium assay, antagonism of acetylcholine response in CHO-K1 cells with Gα16. The format is cell-based. As to conditions: inhibition of the acetylcholine response. Here is the method: Functional antagonism of acetylcholine responses was evaluated using a fluorescence-based functional calcium assay. Acetylcholine binding to the muscarinic receptors activates G-proteins. Human muscarinic 4 receptor (CHRM4) was stably expressed in CHO-K1 cells and a promiscuous Gα16 construct is co-transfected. This cell line was commercially available through PerkinElmer (product number ES-213-A). Following ligand binding, activation of the Ga16 subunit induces the release of calcium from the endoplasmic reticulum. Prior to ligand screening, the receptor-expressing cells were loaded with a fluorescent calcium indicator, FLIPR Calcium 6 (Molecular Devices). Antagonist activity of the compounds was determined as the EC50 for inhibition of the acetylcholine response. The assay buffer used was a 1:1 solution of buffer (1× Hank's balanced salt solution plus 20 mM HEPES buffer, pH 7.4) and cell medium (Ham's F-12, 10% FBS, 0.4 mg/mL Geneticin, 0.25 mg/mL Zeocin). The day before the assay, 4×10^3 cells per well were seeded into an assay plate in 25 μL of medium and allowed to incubate overnight at 37° C. and 5% CO2. The following day, 25 μL of Calcium 6 dye was added to each well and incubated for two additional hours at 37° C. and 5% CO2. The test compound (a dose-response of eleven concentrations ranging from […]) was added to the cells to a final DMSO concentration of 0.56% v/v. One hour later, acetylcholine to a final concentration of 100 nM was added by the instrument and calcium flux-dependent fluorescence measured in real time. The concentration of acetylcholine used was that which stimulates 80% of the maximal response.

As for `C[C@@H]1CN(c2ncc(C(F)(F)F)cn2)C[C@H](C)N1C(=O)NC1CC2(C1)CN(Cc1ccccc1)C2` [Compound 96, (2R,6S)—N-{2-Benzyl-2-azaspiro[3.3]heptan-6-yl}-2,6-dimethyl-4-[5-(trifluoromethyl)pyrimidin-2-yl]piperazine-1-carboxamide], the Ki at human M4 receptor is below 10 nM. In assay [1], the 50% inhibitory concentration (IC50) is below 10 nM.
`C[C@@H]1CN(c2cnc(C(F)(F)F)cn2)[C@@H](C)CN1C(=O)OC1CC2(C1)CN(Cc1ccccc1)C2` [Compound 106, 2-benzyl-2-azaspiro[3.3]heptan-6-yl (2R,5S)-2,5-dimethyl-4-[5-(trifluoromethyl)pyrazin-2-yl]piperazine-1-carboxylate]: the Ki at human M4 receptor lay in the range of 10 to 100 nM. Further, the IC50 in assay [1] is below 10 nM.
In the case of `C[C@@H]1CN(c2cnc(C(F)(F)F)cn2)C[C@H](C)N1C(=O)OC1CC2(C1)CN(Cc1ccccc1)C2` [Compound 141, 2-benzyl-2-azaspiro[3.3]heptan-6-yl (2R,6S)-2,6-dimethyl-4-[5-(trifluoromethyl)pyrazin-2-yl]piperazine-1-carboxylate], the Ki on human M4 receptor was in the range of 10 to 100 nM. Also, the IC50 in assay [1] was below 10 nM.
The like results for `C[C@@H]1CN(c2ncc(C(F)(F)F)cn2)C[C@H](C)N1C(=O)OC1CC2(C1)CN(Cc1ccccc1)C2` [Compound 147, 2-Benzyl-2-azaspiro[3.3]heptan-6-yl (2R,6S)-2,6-dimethyl-4-[5-(trifluoromethyl)pyrimidin-2-yl]piperazine-1-carboxylate] were, in that order, below 10 nM and below 10 nM.
With `C[C@@H]1CN(c2ncc(OCC3CCC3)cn2)C[C@H](C)N1C(=O)OC1CC2(C1)CN(Cc1ccccc1)C2` [Compound 530, 2-benzyl-2-azaspiro[3.3]heptan-6-yl (2R,6S)-4-[5-(cyclobutylmethoxy)pyrimidin-2-yl]-2,6-dimethylpiperazine-1-carboxylate], the Ki on human M4 receptor was below 10 nM.
